Drawing on ChEMBL document CHEMBL1150352, “Novel substituted aminoalkylguanidines as potential antihyperglycemic and food intake-reducing agents” (2008), this text covers Activity for 14 molecules.

What all share (format): functional
Details in all cases: route subcutaneous

The test system of assay [1] is Mus musculus. Description: Antihyperglycemic activity in C57BL/KsJ db/db mouse at 25 mg/kg, sc administered twice a day for 4 days and once on day 5 after 60 mins of load injection by insulin suppression test relative to control.
Assay [2] deals with Mus musculus. As to the kind of experiment: Antihyperglycemic activity in C57BL/KsJ db/db mouse assessed as reduction in food intake at 25 mg/kg, sc administered twice a day for 4 days and once on day 5 relative to control. Further details: scale not given: the % may be the effect or the level left.
The subject of assay [3] is Mus musculus. Description: Antihyperglycemic activity in C57BL/KsJ db/db mouse at 25 mg/kg, sc administered twice a day for 4 days once on day 5 immediately after load injection by insulin suppression test relative to control.
Assay [4] deals with Mus musculus. As to the kind of experiment: Antihyperglycemic activity in C57BL/KsJ db/db mouse assessed as reduction in water consumption at 25 mg/kg, sc administered twice a day for 4 days and once on day 5 relative to control. The arrangement: scale not given: the % may be the effect or the level left.
The subject of assay [5] is Mus musculus. As to the kind of experiment: Antihyperglycemic activity in C57BL/KsJ db/db mouse at 13 mg/kg, sc administered twice a day for 4 days once on day 5 by insulin suppression test relative to control.
Assay [6] concerns Mus musculus. Description: Antihyperglycemic activity in C57BL/KsJ db/db mouse at 130 mg/kg, sc administered twice a day for 4 days once on day 5 by insulin suppression test relative to control.
Assay [7] has as its system Mus musculus. Description: Antihyperglycemic activity in C57BL/KsJ db/db mouse at 5 mg/kg, sc administered twice a day for 4 days once on day 5 immediately after load injection by insulin suppression test relative to control.
Assay [8] relates to Mus musculus. As to the kind of experiment: Antihyperglycemic activity in C57BL/KsJ db/db mouse at 5 mg/kg, sc administered twice a day for 4 days once on day 5 after 60 mins of load injection by insulin suppression test relative to control.

`CC(C)=CCNC(=N)NCCCCN`: the Activity is recorded as -11% with Mus musculus [1], -37% in the assay with Mus musculus [2], -13% with Mus musculus [3] and -53% in the assay with Mus musculus [4].
With `N=C(NCCCCN)NCCCc1ccccc1`, the Activity in the assay with Mus musculus [1] was -8%; in the assay with Mus musculus [2], -33%; with Mus musculus [3], 12%; in the assay on Mus musculus [4] it was -44%.
Take `CC(C)CCNC(=N)NCCCCCCN`: the Activity in the assay with Mus musculus [1] was -24%; in the assay on Mus musculus [2], -14%; with Mus musculus [3], -17%; in the assay with Mus musculus [4], -24%.
As for `N=C(NCCCCCCBr)NCC1CC1`, the Activity with Mus musculus [1] is on record as -20%; in the assay with Mus musculus [2], -22%; in the assay on Mus musculus [3], -12%; in the assay with Mus musculus [4] it was -30%.
In the case of `CC(C)=CCNC(=N)NCCCCCCN`, the Activity in the assay with Mus musculus [1] was -13%; in the assay on Mus musculus [2] it was -19%; in the assay on Mus musculus [3], -31%; in the assay with Mus musculus [4] it was -53%.
Regarding `N=C(NCC1CCC(CN)CC1)NCC1CC1` (configuration not stated), the Activity was -43% in the assay with Mus musculus [1], -40% with Mus musculus [2], -29% with Mus musculus [3] and -59% in the assay on Mus musculus [4].
Take `CC(C)=CCNC(=N)N[C@H]1CC[C@H](N)CC1`: the Activity with Mus musculus [1] was -22%; in the assay on Mus musculus [2] it was -27%; with Mus musculus [3] it was -14%; in the assay with Mus musculus [4] it was -44%.
Turning to `CC(C)=CCNC(=N)NCCCCCN`, the Activity is -13% in the assay with Mus musculus [1], -41% in the assay on Mus musculus [2], -15% in the assay on Mus musculus [3] and -57% in the assay on Mus musculus [4].
Take `CC(C)=CCNC(=N)NCC1CCC(CN)CC1` (configuration not stated): the Activity in the assay with Mus musculus [1] is -29%; in the assay with Mus musculus [2] it was -21%; in the assay on Mus musculus [3], -8%; in the assay on Mus musculus [4], -29%.
On to `N=C(NCCCCCCN)NCC1CC1`, for which the Activity in the assay on Mus musculus [1] is on record as -18%; in the assay on Mus musculus [2] it was -19%; with Mus musculus [3], -42%; in the assay on Mus musculus [4], -45%.
Consider `CN1CCN(/C(=N\c2ccc(F)cc2)NCCCCCCN)CC1`, for which the Activity in the assay with Mus musculus [1] was -12%; with Mus musculus [2] it was -14%; in the assay on Mus musculus [3], -21%; with Mus musculus [4], -35%.
On to `NCCCCCCN/C(=N/c1ccc(F)cc1)N1CCCCC1`, for which the Activity was -8% with Mus musculus [1], -22% in the assay with Mus musculus [2], -15% with Mus musculus [3] and -41% in the assay on Mus musculus [4].
On to `CN(C)C(=N)NC(=N)N` [METFORMIN], for which the Activity was -11% in the assay on Mus musculus [5] and -22% in the assay with Mus musculus [6].
In the case of `CN(CCOc1ccc(CC2SC(=O)NC2=O)cc1)c1ccccn1` (configuration not stated) [ROSIGLITAZONE], the Activity with Mus musculus [7] is given as -29%; with Mus musculus [8] it was -39%.
